{"source": "patent US20040047831A1", "about": "“Use of a cell extract of at least a plant of the family pontederiaceae as anti-pollution agent” (priority 2000, published 2004)", "system": "human keratinocytes", "test": "Cytotoxicity of cadmium chloride toward human keratinocytes in culture (intracellular glutathione, monochlorobimane probe), in the presence or absence of hyacinth extract", "assay_type": "cell-based", "conditions": "24 hours; for toxicity toward human keratinocytes: human keratinocytes in vitro", "procedure": "Heavy metals such as cadmium, nickel, lead, mercury, etc. can lead to cytotoxicity on the cells of various organs including the skin. The cytotoxic effect of cadmium on human keratinocytes in culture was evaluated by means of a technique using a fluorescent probe to measure the level of intracellular glutathione (J. C. Fernandez Checa et al. 1990, R. Kannan et al. 1993).\nThe study was performed on a monolayer culture of human keratinocytes obtained from plastic surgeries. The cells are inoculated on D-3 into 96-well culture dishes at a rate of 25 000 cells/cm^2 in 100 μl of culture medium (calf serum-free defined medium, NR2, Biofluids). The incubations are performed in an incubator at 37° C. under a humid atmosphere enriched with 5% CO2.\nThe cells are treated for 24 hours with increasing concentrations (0, 10, 25, 50, 75, 100, 150 and 200 μM) of cadmium chloride (CdCl2) alone, so as to determine its cytotoxicity. In parallel, a treatment is performed under the same conditions, but in the presence of hyacinth extract (0.125%). The incubations are performed in an incubator at 37° C., [lacuna]% CO2 under a humid atmosphere.\nAt the end of the contact period, labeling of the intracellular glutathione is performed using a specific fluorescent probe: monochlorobimane (MCB).\nBriefly, after treatment, rinse the cells with buffer (PBS) so as to remove the treatment solutions.\nAdd 100 μl per well of a 1 mM MCB solution over one hour at room temperature and protected from light.\nEliminate the MCB, and add 200 μl/well of PBS buffer.\nRead on the spectrofluorimeter (excitation: 380 nm; emission: 485 nm).\nThe fluorescence obtained is proportional to the amount of glutathione conjugated to the MCB.\nCalculate the concentration of CdCl2 that results in a 50% drop in the level of glutathione (=IC.50)"}
{"smiles": "[Cl][Cd][Cl]", "note": "[cadmium chloride]", "values": [{"measurement": "IC50", "setting": "CdCl2 alone, human keratinocyte monolayer, concentration giving 50% drop in glutathione level/cell viability, 3 independent experiments, read-out: IC.50 of cadmium chloride without protecting agent, Mean ± SEM", "result": 43.7, "unit": "µM"}, {"measurement": "toxicity toward human keratinocytes", "setting": "listed as Cadmium chloride", "result": "considerable toxicity"}, {"measurement": "toxicity toward human keratinocytes", "setting": "listed as cadmium", "result": "strong toxicity"}]}
